Species: Rattus norvegicus
Assay: DrugMatrix - Regimen: Daily Repeat
Format: toxicity, organism-based, Sprague-Dawley
Design: regimen Daily Repeat, gender Male, age 6-8 weeks
Settings: in vivo, po, route oral GAVAGE, vehicle .5 % CMC; for ABSOLUTE BASOPHIL / ABSOLUTE EOSINOPHIL / ABSOLUTE LYMPHOCYTE / ABSOLUTE MONOCYTE / ABSOLUTE SEGMENTED NEUTROPHIL / BASOPHIL / EOSINOPHIL / ERYTHROCYTE COUNT / HEMATOCRIT / HEMOGLOBIN / LEUKOCYTE COUNT / LYMPHOCYTE / MEAN CORPUSCULAR HEMOGLOBIN / MEAN CORPUSCULAR HEMOGLOBIN CONCENTRATION / MEAN CORPUSCULAR VOLUME / MONOCYTE / NEUTROPHIL / NUCLEATED RED BLOOD CELLS / PLATELET COUNT: tissue Blood; for ALANINE AMINOTRANSFERASE / ALBUMIN / ALKALINE PHOSPHATASE / ASPARTATE AMINOTRANSFERASE / BLOOD UREA NITROGEN / CARBON DIOXIDE / CHLORIDE / CHOLESTEROL / CREATINE PHOSPHOKINASE / CREATININE / GLUCOSE / LACTATE DEHYDROGENASE / LIPASE / PHOSPHORUS / POTASSIUM / SODIUM / TOTAL BILIRUBIN / TOTAL PROTEIN / URIC ACID: tissue Plasma
[1] = 0 mg/kg, 72 h, dose level Control, time 3 day
[2] = 0 mg/kg, 120 h, dose level Control, time 5 day
[3] = 0.1 mg/kg, 72 h, dose level Low, time 3 day

CCCN1C[C@H](CSC)C[C@@H]2c3cccc4[nH]cc(c34)C[C@H]21 [PERGOLIDE]
ABSOLUTE BASOPHIL [1]: 0 CELLS/uL | ABSOLUTE EOSINOPHIL [1]: 284.5 CELLS/uL | ABSOLUTE LYMPHOCYTE [1]: 11670.5 CELLS/uL | ABSOLUTE MONOCYTE [1]: 420.83 CELLS/uL | ABSOLUTE SEGMENTED NEUTROPHIL [1]: 1024.17 CELLS/uL | BASOPHIL [1]: 0% | EOSINOPHIL [1]: 1.67% | ERYTHROCYTE COUNT [1]: 5.38 x10E6/uL | HEMATOCRIT [1]: 34.05% | HEMOGLOBIN [1]: 12.75 G/DL | LEUKOCYTE COUNT [1]: 13.4 x10E3/uL | LYMPHOCYTE [1]: 88.33% | MEAN CORPUSCULAR HEMOGLOBIN [1]: 23.73 pg | MEAN CORPUSCULAR HEMOGLOBIN CONCENTRATION [1]: 37.43 G/DL | MEAN CORPUSCULAR VOLUME [1]: 63.4 fL | MONOCYTE [1]: 2.83% | NEUTROPHIL [1]: 7.17% | NUCLEATED RED BLOOD CELLS [1]: 0 /100WBC | PLATELET COUNT [1]: 1184.67 x10E3/uL | ALANINE AMINOTRANSFERASE [1]: 45.33 u/L | ALBUMIN [1]: 4.3 G/DL | ALKALINE PHOSPHATASE [1]: 388.83 u/L | ASPARTATE AMINOTRANSFERASE [1]: 84.83 u/L | BLOOD UREA NITROGEN [1]: 15.5 mg/dL | CARBON DIOXIDE [1]: 27 mmol/L | CHLORIDE [1]: 101.8 MEQ/L | CHOLESTEROL [1]: 76.67 mg/dL | CREATINE PHOSPHOKINASE [1]: 301 u/L | CREATININE [1]: 0.21 mg/dL | GLUCOSE [1]: 168.83 mg/dL | LACTATE DEHYDROGENASE [1]: 294.83 u/L | LIPASE [1]: 9.8 u/L | PHOSPHORUS [1]: 13.25 mg/dL | POTASSIUM [1]: 6.41 MEQ/L | SODIUM [1]: 143.72 MEQ/L | TOTAL BILIRUBIN [1]: 0.22 mg/dL | TOTAL PROTEIN [1]: 5.98 G/DL | URIC ACID [1]: 1.5 mg/dL | ABSOLUTE BASOPHIL [2]: 0 CELLS/uL | ABSOLUTE EOSINOPHIL [2]: 190.67 CELLS/uL | ABSOLUTE LYMPHOCYTE [2]: 12549.5 CELLS/uL | ABSOLUTE MONOCYTE [2]: 276 CELLS/uL | ABSOLUTE SEGMENTED NEUTROPHIL [2]: 1067.17 CELLS/uL | BASOPHIL [2]: 0% | EOSINOPHIL [2]: 1.33% | ERYTHROCYTE COUNT [2]: 5.66 x10E6/uL | HEMATOCRIT [2]: 35.92% | HEMOGLOBIN [2]: 13.65 G/DL | LEUKOCYTE COUNT [2]: 14.08 x10E3/uL | LYMPHOCYTE [2]: 89% | MEAN CORPUSCULAR HEMOGLOBIN [2]: 24.12 pg | MEAN CORPUSCULAR HEMOGLOBIN CONCENTRATION [2]: 38.03 G/DL | MEAN CORPUSCULAR VOLUME [2]: 63.47 fL | MONOCYTE [2]: 2% | NEUTROPHIL [2]: 7.67% | NUCLEATED RED BLOOD CELLS [2]: 0.17 /100WBC | PLATELET COUNT [2]: 1251.67 x10E3/uL | ALANINE AMINOTRANSFERASE [2]: 43.33 u/L | ALBUMIN [2]: 4.22 G/DL | ALKALINE PHOSPHATASE [2]: 365.67 u/L | ASPARTATE AMINOTRANSFERASE [2]: 83.67 u/L | BLOOD UREA NITROGEN [2]: 18.17 mg/dL | CARBON DIOXIDE [2]: 28.67 mmol/L | CHLORIDE [2]: 103.5 MEQ/L | CHOLESTEROL [2]: 71.5 mg/dL | CREATINE PHOSPHOKINASE [2]: 284.5 u/L | CREATININE [2]: 0.21 mg/dL | GLUCOSE [2]: 161.67 mg/dL | LACTATE DEHYDROGENASE [2]: 259.67 u/L | LIPASE [2]: 9.5 u/L | PHOSPHORUS [2]: 12.45 mg/dL | POTASSIUM [2]: 6.49 MEQ/L | SODIUM [2]: 144.25 MEQ/L | TOTAL BILIRUBIN [2]: 0.2 mg/dL | TOTAL PROTEIN [2]: 6.1 G/DL | URIC ACID [2]: 1.73 mg/dL | ABSOLUTE BASOPHIL [3]: 0 CELLS/uL | ABSOLUTE EOSINOPHIL [3]: 0 CELLS/uL | ABSOLUTE LYMPHOCYTE [3]: 6272.67 CELLS/uL | ABSOLUTE MONOCYTE [3]: 109.67 CELLS/uL | ABSOLUTE SEGMENTED NEUTROPHIL [3]: 384.33 CELLS/uL | BASOPHIL [3]: 0% | EOSINOPHIL [3]: 0% | ERYTHROCYTE COUNT [3]: 5.33 x10E6/uL | HEMATOCRIT [3]: 33.93% | HEMOGLOBIN [3]: 12.33 G/DL | LEUKOCYTE COUNT [3]: 6.77 x10E3/uL | LYMPHOCYTE [3]: 92.67% | MEAN CORPUSCULAR HEMOGLOBIN [3]: 23.1 pg | MEAN CORPUSCULAR HEMOGLOBIN CONCENTRATION [3]: 36.37 G/DL | MEAN CORPUSCULAR VOLUME [3]: 63.57 fL | MONOCYTE [3]: 1.67% | NEUTROPHIL [3]: 5.67% | NUCLEATED RED BLOOD CELLS [3]: 0 /100WBC | PLATELET COUNT [3]: 1337.33 x10E3/uL | ALANINE AMINOTRANSFERASE [3]: 45.67 u/L | ALBUMIN [3]: 4.4 G/DL | ALKALINE PHOSPHATASE [3]: 479.67 u/L | ASPARTATE AMINOTRANSFERASE [3]: 81.67 u/L | BLOOD UREA NITROGEN [3]: 15.33 mg/dL | CARBON DIOXIDE [3]: 28.67 mmol/L | CHLORIDE [3]: 102 MEQ/L | CHOLESTEROL [3]: 85 mg/dL | CREATINE PHOSPHOKINASE [3]: 214.67 u/L | CREATININE [3]: 0.21 mg/dL | GLUCOSE [3]: 139 mg/dL | LACTATE DEHYDROGENASE [3]: 153.33 u/L | LIPASE [3]: 9 u/L | PHOSPHORUS [3]: 12.77 mg/dL | POTASSIUM [3]: 6.37 MEQ/L | SODIUM [3]: 146.5 MEQ/L | TOTAL BILIRUBIN [3]: 0.23 mg/dL | TOTAL PROTEIN [3]: 6.23 G/DL | URIC ACID [3]: 1.53 mg/dL

From ChEMBL document CHEMBL3885881, “DrugMatrix”
